Laboratory results taken from patent US20040116420A1 (priority 2001, published 2004).

Legend:
HSV-1 protease = target: T1, HSV-1 protease (Human herpesvirus 1, UniProt P10210); assay: Enzymatic assay for HSV-1 protease (assembly) inhibitor, fluorescence polarization; type: biochemical; conditions: read-out: HSV-1 Enzyme inhibition IC50
T1 construct: 6xHis (N); made in house; host or cells: baculovirus expression system
Experimental: An enzymatic assay method for an HSV-1 protease (assembly) inhibitor
The activity of an assembly protease was determined by fluorescence polarization. Biotin-gamma-amino butyrate-[…]-DTAF was used as a fluorescent substrate in accordance with an HSV-1 release and cleavage site. […] Changes in the sizes of fluorescent substrate molecules that increased with the use of avidin as a reaction terminator were assayed by fluorescence polarization.
The test compound was dissolved in DMF, and the resultant was diluted 5-fold with an assay buffer. 6.5 μl thereof was added to wells of a 96-well plate (a U-bottomed 96-well plate, Coster) that had previously been blocked with a blocking solution (10 mM Tris-HCl (pH 8.0), 150 mM sodium chloride, 0.05% Tween 20, 1 mg/ml of BSA). The enzyme was diluted to 21.3 μg/ml with an assay buffer (1M sodium citrate, 50 mM sodium phosphate (pH 7.4), 100 mM sodium chloride, 20% glycerol, 2 mM TCEP), and 48.5 μl of the resultant was added to each well. The plate was incubated at room temperature for 30 minutes, and 10 μl of 62.5 μg/ml substrate solution was then added to each well. The plate was incubated at room temperature for 60 minutes, and 50 μl of 2 mg/ml avidin phosphate buffer solution (50 mM sodium phosphate, 100 mM sodium chloride (pH 7.4)) was added to each well. The activity was determined in comparison with a compound without protease inhibitor using a microplate reader for fluorescence polarization.
HSV-1 protease was purified from a vaculovirus that had expressed a DNA construct encoding the reading frame for HSV-1UL26. This construct had further encoded 6 histidine residues at the amino terminus of the protease. These additional histidine residues impart affinity ligands purified by nickel-nitriloacetic acid-agarose (Qiagen). The purified protease was stored as a stock solution for a 20 mM HEPES buffer (pH 8.5, containing 20% v/v glycerin). This stock solution was diluted with an assay buffer and then used in the enzyme reaction.
In accordance with the cleavage specificity of the HSV-1 protease at the “release site” of the assembled protein, a specific substrate was synthesized (Diianni et al., J. Biol. Chem. 268, 2048 (1993)). This assembly protein-release site had the sequence • HTYLQA*SEKFKMW • , and the substrate used was biotin-gamma-amino butyrate-HTYLQA*SERFRIK-DTAF. This is a standard method for peptide synthesis, for example, as in the a method described in “The Practice of Peptide Synthesis” (Bodansky and Bodansky (1984)). The product was stored as a 2.5 mg/ml stock solution in DMF. The resultant was diluted to 62.5 μg/ml with a phosphate buffer (50 mM sodium phosphate, 100 mM sodium chloride, (pH 7.4)) immediately before its use.
An assay buffer (1M sodium citrate, 50 mM sodium phosphate (pH 7.4), 100 mM sodium chloride, 20% glycerol, 2 mM TCEP) was used to dilute a stock solution for the enzyme and that for the inhibitor.

HSV-1 = assay: Antiviral activity, HSV-1 in Vero cells, plaque method; type: cell-based; conditions: Human alphaherpesvirus 1, 20 hours, 90% inhibition of plaque formation
Experimental: An Assay Method for Antiviral Activity These complementary assay methods examine the capacity of a compound to inhibit the generation of new viruses and to inhibit the toxicity of the compound against the host cell. Toxicity indirectly decreases the generation of viruses. Thus, it is important to simultaneously conduct both assays in order to directly compare the results. The Vero cells were sown on a 96-well plate and then cultured overnight. The culture supernatant was removed, and 100 μl of 2% FBS-DMEM containing 50,000 plaque-forming units (hereinafter abbreviated as “pfu”) of HSV-1 was added. A viral solution was removed and 200 μl of 2% FBS-DMEM comprising a test compound was added. In this case, a substance to which 2% FBS-DMEM not comprising any test compound had been added was determined as a control. These infected cells were incubated in the presence of 5% CO2 at 37° C. for 20 hours, and the medium was once allowed to freeze at −80° C. The culture solution was dissolved, and the amount of viruses in the culture solution was assayed by the plaque method. The concentration of the test compound when it inhibited 90% of plaque formation relative to the control was determined to be EC 90.

T1 sequence (P10210 1-247): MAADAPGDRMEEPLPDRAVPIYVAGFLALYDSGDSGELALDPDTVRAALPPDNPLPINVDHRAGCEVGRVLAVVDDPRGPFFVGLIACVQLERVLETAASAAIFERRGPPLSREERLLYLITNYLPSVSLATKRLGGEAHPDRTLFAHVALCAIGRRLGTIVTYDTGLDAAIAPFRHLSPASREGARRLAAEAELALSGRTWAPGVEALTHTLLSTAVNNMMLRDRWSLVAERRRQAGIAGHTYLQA

SMILES: Cc1c(NC(=O)CCNC(=O)OC(C)(C)C)ccc2nc(NC(C)(C)C(=O)N(C)CCc3ccccn3)oc(=O)c12 [Compound No.201, [2-(5-methyl-2-{1-methyl-1-[methyl-(2-pyridin-2-yl-ethyl)-carbamoyl]-ethylamino}-4-oxo-4H-benzo[d][1,3]oxazin-6-ylcarbamoyl)-ethyl]-carbamic Acid Tert-Butyl Ester]
- IC50 (HSV-1 protease): 1100 nM
- EC90 (HSV-1): > 12500 nM

SMILES: Cc1c(NC(=O)CCNC(=O)OCc2ccccc2)ccc2nc(NC(C)(C)C(=O)N(C)CCc3ccccn3)oc(=O)c12 [Compound No.202, [2-(5-Methyl-2-{1-methyl-1-[methyl-(2-pyridin-2-yl-ethyl)-carbamoyl]-ethylamino}-4-oxo-4H-benzo [d][1,3]oxazin-6-ylcarbamoyl)-ethyl]-carbamic acid benzyl ester]
- IC50 (HSV-1 protease): 500 nM
- EC90 (HSV-1): > 12500 nM

SMILES: Cc1c(NC(=O)CCCNC(=O)OC(C)(C)C)ccc2nc(NC(C)(C)C(=O)N(C)CCc3ccccn3)oc(=O)c12 [Compound No.203, [3-(5-Methyl-2-{1-methyl-1-[methyl-(2-pyridin-2-yl-ethyl)-carbamoyl]-ethylamino}-4-oxo-4H-benzo[d][1,3]oxazin-6-ylcarbamoyl)-propyl]-carbamic acid tert-butyl ester]
- IC50 (HSV-1 protease): 400 nM
- EC90 (HSV-1): > 12500 nM

SMILES: Cc1c(NC(=O)CCCNC(=O)OCc2ccccc2)ccc2nc(NC(C)(C)C(=O)N(C)CCc3ccccn3)oc(=O)c12 [Compound No.204, [3-(5-Methyl-2-{1-methyl-1-[methyl-(2-pyridin-2-yl-ethyl)-carbamoyl]-ethylamino}-4-oxo-4H-benzo[d][1,3]oxazin-6-ylcarbamoyl)-propyl]-carbamic acid benzyl ester]
- IC50 (HSV-1 protease): 300 nM
- EC90 (HSV-1): > 12500 nM

SMILES: Cc1c(NC(=O)CCNC(=O)OC(C)(C)C)ccc2nc(N[C@@H](C)C(=O)N(C)CCc3ccccn3)oc(=O)c12 [Compound No.205, [2-(5-Methyl-2-{1S-[methyl-(2-pyridin-2-yl-ethyl)-carbamoyl]-ethylamino}-4-oxo-4H-benzo[d][1,3]oxazin-6-ylcarbamoyl)-ethyl]-carbamic acid tert-butyl ester]
- IC50 (HSV-1 protease): 2500 nM
- EC90 (HSV-1): > 20000 nM

SMILES: Cc1c(NC(=O)CCNC(=O)OCc2ccccc2)ccc2nc(N[C@@H](C)C(=O)N(C)CCc3ccccn3)oc(=O)c12 [Compound No.206, [2-(5-Methyl-2-{1S-[methyl-(2-pyridin-2-yl-ethyl)-carbamoyl]-ethylamino}-4-oxo-4H-benzo[d][1,3]oxazin-6-ylcarbamoyl)-ethyl]-carbamic acid benzyl ester]
- IC50 (HSV-1 protease): 1100 nM
- EC90 (HSV-1): > 12500 nM

SMILES: Cc1c(NC(=O)CCCNC(=O)OC(C)(C)C)ccc2nc(N[C@@H](C)C(=O)N(C)CCc3ccccn3)oc(=O)c12 [Compound No.207, [3-(5-Methyl-2-{1S-[methyl-(2-pyridin-2-yl-ethyl)-carbamoyl]-ethylamino}-4-oxo-4H-benzo[d][1,3]oxazin-6-ylcarbamoyl)-propyl]-carbamic acid tert-butyl ester]
- IC50 (HSV-1 protease): 1100 nM
- EC90 (HSV-1): > 12500 nM

SMILES: Cc1c(NC(=O)CCCNC(=O)OCc2ccccc2)ccc2nc(N[C@@H](C)C(=O)N(C)CCc3ccccn3)oc(=O)c12 [Compound No.208, [3-(5-Methyl-2-{1S-[methyl-(2-pyridin-2-yl-ethyl)-carbamoyl]-ethylamino}-4-oxo-4H-benzo[d][1,3]oxazin-6-ylcarbamoyl)-propyl]-carbamic acid benzyl ester]
- IC50 (HSV-1 protease): 200 nM
- EC90 (HSV-1): > 12500 nM

SMILES: Cc1c(NC(=O)CCNC(=O)c2cccs2)ccc2nc(NC(C)(C)C(=O)N(C)CCc3ccccn3)oc(=O)c12 [Compound No.209, thiophene-2-carboxylic acid [2-(5-methyl-2-{1-methyl-1-[methyl-(2-pyridin-2-yl-ethyl)-carbamoyl]-ethylamino}-4-oxo-4H-benzo[d][1,3]oxazin-6-ylcarbamoyl)-ethyl]-amide]
- IC50 (HSV-1 protease): 900 nM
- EC90 (HSV-1): > 12500 nM

SMILES: Cc1c(NC(=O)CCNC(=O)c2ccc(C(F)(F)F)cc2)ccc2nc(NC(C)(C)C(=O)N(C)CCc3ccccn3)oc(=O)c12 [Compound No.210, N-[2-(5-Methyl-2-{1-methyl-1-[methyl-(2-pyridin-2-yl-ethyl)-carbamoyl]-ethylamino}-4-oxo-4H-benzo[d][1,3]oxazin-6-ylcarbamoyl)-ethyl]-4-trifluoromethyl-benzamide]
- IC50 (HSV-1 protease): 700 nM
- EC90 (HSV-1): > 12500 nM

SMILES: CCCCc1ccc(C(=O)NCCC(=O)Nc2ccc3nc(NC(C)(C)C(=O)N(C)CCc4ccccn4)oc(=O)c3c2C)cc1 [Compound No.211, 4-Butyl-N-[2-(5-methyl-2-{1-methyl-1-[methyl-(2-pyridin-2-yl-ethyl)-carbamoyl]-ethylamino}-4-oxo-4H-benzo[d][1,3]oxazin-6-ylcarbamoyl)-ethyl]-benzamide]
- IC50 (HSV-1 protease): 700 nM
- EC90 (HSV-1): > 12500 nM

SMILES: Cc1c(NC(=O)CCCNC(=O)c2cccs2)ccc2nc(NC(C)(C)C(=O)N(C)CCc3ccccn3)oc(=O)c12 [Compound No.212, Thiophene-2-carboxylic acid [3-(5-methyl-2-{1-methyl-1-[methyl-(2-pyridin-2-yl-ethyl)-carbamoyl]-ethylamino}-4-oxo-4H-benzo[d][1,3]oxazin-6-ylcarbamoyl)-propyl]-amide]
- IC50 (HSV-1 protease): 300 nM
- EC90 (HSV-1): > 12500 nM

SMILES: Cc1c(NC(=O)CCCNC(=O)c2ccc(C(F)(F)F)cc2)ccc2nc(NC(C)(C)C(=O)N(C)CCc3ccccn3)oc(=O)c12 [Compound No.213, N-[3-(5-Methyl-2-{1-methyl-1-[methyl-(2-pyridin-2-yl-ethyl)-carbamoyl]-ethylamino}-4-oxo-4H-benzo [d][1,3]oxazin-6-ylcarbamoyl)-propyl]-4-trifluoromethyl-benzamide]
- IC50 (HSV-1 protease): 300 nM
- EC90 (HSV-1): > 12500 nM

SMILES: CCCCc1ccc(C(=O)NCCCC(=O)Nc2ccc3nc(NC(C)(C)C(=O)N(C)CCc4ccccn4)oc(=O)c3c2C)cc1 [Compound No.214, 4-Butyl-N-[3-(5-methyl-2-{1-methyl-1-[methyl-(2-pyridin-2-yl-ethyl)-carbamoyl]-ethylamino}-4-oxo-4H-benzo[d][1,3]oxazin-6-ylcarbamoyl)-propyl]-benzamide]
- IC50 (HSV-1 protease): 300 nM
- EC90 (HSV-1): > 12500 nM

SMILES: Cc1c(NC(=O)CCNC(=O)c2cccs2)ccc2nc(N[C@@H](C)C(=O)N(C)CCc3ccccn3)oc(=O)c12 [Compound No.215, Thiophene-2-carboxylic acid [2-(5-methyl-2-{1S-[methyl-(2-pyridin-2-yl-ethyl)-carbamoyl]-ethylamino}-4-oxo-4H-benzo[d][1,3]oxazin-6-ylcarbamoyl)-ethyl]-amide]
- IC50 (HSV-1 protease): 3200 nM
- EC90 (HSV-1): > 12500 nM

SMILES: Cc1c(NC(=O)CCNC(=O)c2ccc(C(F)(F)F)cc2)ccc2nc(N[C@@H](C)C(=O)N(C)CCc3ccccn3)oc(=O)c12 [Compound No.216, N-[2-(5-Methyl-2-{1S-[methyl-(2-pyridin-2-yl-ethyl)-carbamoyl]-ethylamino}-4-oxo-4H-benzo[d][1,3]oxazin-6-ylcarbamoyl)-ethyl]-4-trifluoromethyl-benzamide]
- IC50 (HSV-1 protease): 3000 nM
- EC90 (HSV-1): > 12500 nM

SMILES: CCCCc1ccc(C(=O)NCCC(=O)Nc2ccc3nc(N[C@@H](C)C(=O)N(C)CCc4ccccn4)oc(=O)c3c2C)cc1 [Compound No.217, 4-Butyl-N-[2-(5-methyl-2-{1S-[methyl-(2-pyridin-2-yl-ethyl)-carbamoyl]-ethylamino}-4-oxo-4H-benzo[d][1,3]oxazin-6-ylcarbamoyl)-ethyl]-benzamide]
- IC50 (HSV-1 protease): 4700 nM
- EC90 (HSV-1): > 12500 nM
